Measured values taken from patent publication EP4289427A1, “DIHYDRO[1,8]NAPHTHYRIDIN-7-ONE AND PYRIDO[3,2-B][1,4]OXAZIN-3-ONE FOR USE IN TREATING CANCER, AND METASTASES IN PARTICULAR” (Anagenesis Biotechnologies, priority 2022, dated 2023).

How the values were obtained:
[1] = system: RPMI 8226; assay: Cytotoxicity assay on KRAS mutated RPMI 8226 cells; format: cell-based, Human; settings: RPMI 8226, KRAS mutated, incubation 2 days
Protocol: (§1) Cytotoxicity assays consist in treating cells with compounds and assessing remaining viability after a defined incubation time, depending on the cell line. CellTiter-Glo® 2.0 reagent allows viability measurement by quantification of ATP present, which is an indicator of metabolically active cells.
(§2) The cancer cell lines were cultivated in their respective growth medium (see tables 6a and 6b). On day 0 of the cytotoxicity assay, the cells were harvested and seeded into a 384-well plate at a defined density in their respective growth medium (see tables 6a and 6b). Compounds to be tested were then added onto the cells and incubated for a defined duration (see tables 6a and 6b). Following incubation, CellTiter-Glo® 2.0 reagent (cat.no. G9241 from Promega) was added into the wells (vol/vol, according to the manufacturer's recommendations), plates were gently shaken and incubated for 10 minutes in the dark at room temperature. Bioluminescence was then measured with a multimode plate reader (Victor Nivo from Perkin Elmer), and cell viability and relative IC50 were determined. Table 6a: Cancer cell characteristics, culture and cytotoxic assay conditions

[2] = system: A549; assay: Cytotoxicity assay on KRAS mutated A549 cells; format: cell-based, Human; settings: incubation 2 days
Protocol: as §1, §2

[3] = system: HCT116; assay: Cytotoxicity assay on KRAS mutated HCT116 cells; format: cell-based, Human; settings: incubation 2 days
Protocol: as §1, §2

[4] = system: 4T1 cells; assay: Epithelial-mesenchymal transition marker expression by qRT-PCR; format: cell-based, Mouse; set-up: key: ↗: increased expression; ↘: decreased expression; =: unchanged expression levels; settings: 24 hours, expression normalized against RPL13
How it was run: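 Compound or DMSO applied to 4T1 cells for 24 h; total RNA (500 ng) reverse-transcribed and EMT markers quantified by SYBR Green qPCR. Expression normalized to housekeeping gene RPL13.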

[5] = system: SW480; assay: Cytotoxicity assay on KRAS mutated SW480 cells; format: cell-based, Human; settings: incubation 2 days
Protocol: as §1, §2

[6] = system: 4T1 cells; assay: Cytotoxicity assay (CellTiter-Glo 2.0) on 4T1 cells; format: cell-based, Mouse; settings: incubation 2 days; for IC50: Mus musculus, 48 h
How it was run: (§3)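 Seed cells day 0 in respective growth medium; add compounds; incubate for line-specific time; add CellTiter-Glo 2.0, shake, 10 min RT dark; read luminescence; calculate viability and relative IC50.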

[7] = system: MDA-MB-231 cells; assay: Cytotoxicity assay (CellTiter-Glo 2.0) on MDA-MB-231 cells; format: cell-based, Human; settings: incubation 3 days; for IC50: Homo sapiens, 72 h
How it was run: as §3

[8] = system: HEC-1A; assay: Cytotoxicity assay on KRAS mutated HEC-1A cells; format: cell-based, Human; settings: incubation 2 days
Protocol: as §1, §2

[9] = system: RD cells; assay: Cytotoxicity assay (CellTiter-Glo 2.0) on RD cells; format: cell-based, Human; settings: for IC50: Homo sapiens
How it was run: as §3

[10] = system: EoL-1 cells; assay: Cytotoxicity assay (CellTiter-Glo 2.0) on EoL-1 cells; format: cell-based, Human; settings: incubation 1 day; for IC50: Homo sapiens, EOL1, 24 h
How it was run: as §3

[11] = system: HUVECs; assay: Tube formation assay (anti-angiogenic activity); format: cell-based, human; settings: incubation 16 to 18 hours; for IC50: Homo sapiens, HUVEC
How it was run: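 HUVECs plated at 5000 cells/well on reduced growth factor basement membrane matrix, then exposed to compounds for 16 to 18 hours at 37°C. Cells stained with calcein-AM; tube networks imaged by confocal fluorescence microscopy and quantified.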

[12] = system: Mia PaCa-2; assay: Cytotoxicity assay on KRAS mutated Mia PaCa-2 cells; format: cell-based, Human; settings: Mia PaCa-2, KRAS mutated, incubation 2 days
Protocol: as §1, §2

[13] = system: PSN1; assay: Cytotoxicity assay on KRAS mutated PSN1 cells; format: cell-based, Human; settings: incubation 2 days
Protocol: as §1, §2

[14] = system: 4T1 cells; assay: Colony forming (clonogenic) assay; format: cell-based, Mouse; settings: 6 days of treatment, Figure 2
Protocol: Cancer stem cells are characterized by their ability to undergo virtually unlimited divisions. Colony forming assay (or clonogenic assay) is an in vitro assay designed to assess capability of single cells to grow into large colonies through clonal expansion.
4T1 cells were seeded at a density of 500 cells per well of six-well plates in 4T1 medium. Compounds to be tested were added 24 hours after seeding. After 6 days of treatment, the cells were fixed in 4% PFA and stained with 1% aqueous solution of crystal violet. Pictures of the entire wells were acquired, and the area of the positives colonies was evaluated by ImageJ software (Wayne Rasband; NIH).

[15] = system: RD cells; assay: Differentiation of RD cells into myotubes (alpha-actinin staining); format: cell-based, Human; settings: 7 days, Figure 3
Protocol: RD cells are cancer cells of muscle origin that arose from myogenic precursors that fail to complete muscle differentiation. One strategy to stop their progression is to differentiate them into myotubes.
To allow differentiation, RD cells were seeded at a density of 3500 cells/well in a 384-well plate coated with collagen type I, in DMEM (4,5g/L glucose) with L-Gln (cat.no. 41965-039 from Gibco) supplemented with 5% of knockout serum replacement (cat.no. 10828-028 from Gibco), 1% PenStrep (Gibco), 1% MEM NEAA (Gibco) and 0.1 mM 2-mercaptoethanol (Gibco) (hereafter "K5 medium"). Compounds to be tested were then added onto the cells and incubated for 7 days at 37°C. On day 7, cells were fixed with 4% paraformaldehyde solution and immunostained for α-actinin (cat.no. EA-53 from Sigma, at 1/30000).

[16] = system: Src kinase family; assay: Human phospho-kinase array in RD cells; format: cell-based; settings: 1 hour at its IC50, Figure 4
Protocol: Inhibition of kinases can be observed by quantifying both their phosphorylation levels and the phosphorylation level of downstream proteins in their pathways.
RD cells were cultured in vitro and expanded for 4 days prior to the experiments (see example 3.1 and table 6a for details). The assay was performed using the human phospho-kinase array kit (cat.no. ARY003C from R&D Systems), according to the manufacturer's instructions. The RD cells were treated with compound #032 for 1 hour at its IC50 (previously defined) and lysed with lysis buffer supplemented with aprotinin, leupeptin and pepstatin. The total protein extract was titrated using a micro-BCA kit (cat. no. 23235 from Thermofisher Scientific). The array membranes were blocked and incubated overnight at 4 °C with 500 µg of total protein. Then, the detection antibodies were added for 2 hours followed by the HRP-conjugated Streptavidin solution for 30 minutes. The chemiluminescent signal was finally developed by incubating the membranes with the chemi-reagent mix and placed in the Fusion-FX acquisition system (Vilber Instruments). Data were analyzed using ImageJ software (Wayne Rasband; NIH).

[17] = system: MDA-MB-231 cells; assay: Scratch (wound healing) assay, cell migration; format: cell-based, Human; settings: 24 hours, Figure 1
Protocol: Cell migration is involved in several pathological cancer processes such as tumor invasion, neoangiogenesis and metastasis. Scratch (or wound healing) assay is a method to study two-dimensional cell migration in vitro. It is based on the observation that cells growing in a monolayer migrate to reestablish cell contacts after a mechanical scratch wound.
The MDA-MB-231 cells were seeded into a 24-well plate and grown to confluent density. A scrape was made in each well using a pipette tip. Then, the cells monolayers were incubated for 2 hours with 5 µg/ml mitomycin C to stop cell proliferation. The cells were treated with the compounds to be tested for 24 hours. The cells were stained using CellMask Green actin tracking stain (cat.no. A57246 from Fisher Scientific) at time zero and at endpoint. Pictures were acquired using a fluorescence microscope (IXM from Molecular Device). The scratch area was measured with the ImageJ software. The recovery of the scratch area was calculated as a percentage of the scratch area at time zero.

Structure (SMILES) | Epithelial markers E-cadherin [4] | Epithelial markers EpCAM [4] | Mesenchymal markers Fibronectin [4] | Mesenchymal markers Vimentin [4] | IC50 [6] [nM] | Cytotoxicity [6] | IC50 [7] [nM] | Cytotoxicity [7] | Cytotoxicity ([9]; 2 day-treatment) | Cytotoxicity ([9]; 4 day-treatment) | IC50 ([9]; 48 h, 2 day-treatment) [nM] | IC50 ([9]; 96 h, 4 day-treatment) [nM] | IC50 [10] [nM] | Cytotoxicity [10] | IC50 [11] [nM] | Angiogenesis inhibition [11] | other results
CSc1cc(Oc2ccnc3c2OCC(=O)N3)ccc1NC(=O)Nc1cc(C(C)(C)C)no1 [Compound 020, 1-(3-tert-butylisoxazol-5-yl)-3-[2-methylsulfanyl-4-[(3-oxo-4H-pyrido[3,2-b][1,4]oxazin-8-yl)oxy]phenyl]urea] | ↗ | = | ↘ | ↘ | 1000 to 5000 | +++ (cytotoxicity ≥ 85%) | < 1000 | ++ (50% ≤ cytotoxicity < 85%) | ++ (50% ≤ cytotoxicity < 85%) | ++ (50% ≤ cytotoxicity < 85%) | 1000 to 5000 | < 1000 | < 1 | +++ (cytotoxicity ≥ 85%) | < 100 | +++ (angiogenesis inhibition ≥ 80%) | IC50 ([1]; Homo sapiens, 48 h): < 1000 nM; Cytotoxicity [1]: ++ (50% ≤ cytotoxicity < 85%); IC50 ([2]; Homo sapiens, 48 h): < 1000 nM; Cytotoxicity [2]: ++ (50% ≤ cytotoxicity < 85%); IC50 ([3]; Homo sapiens, HCT-116, 48 h): < 1000 nM; Cytotoxicity [3]: +++ (cytotoxicity ≥ 85%); IC50 ([5]; Homo sapiens, 48 h): < 1000 nM; Cytotoxicity [5]: ++ (50% ≤ cytotoxicity < 85%); IC50 ([8]; Homo sapiens, 48 h): < 1000 nM; Cytotoxicity [8]: ++ (50% ≤ cytotoxicity < 85%); IC50 ([12]; Homo sapiens, 48 h): < 1000 nM; Cytotoxicity [12]: +++ (cytotoxicity ≥ 85%); IC50 ([13]; Homo sapiens, 48 h): < 1000 nM; Cytotoxicity [13]: +++ (cytotoxicity ≥ 85%)
CSc1cc(Oc2ccnc3c2CCC(=O)N3)ccc1NC(=O)Nc1cc(C(C)(C)C)nn1-c1ccc(C)nc1 [Compound 032, 1-[5-tert-butyl-2-(6-methyl-3-pyridyl)pyrazol-3-yl]-3-[2-methylsulfanyl-4-[(7-oxo-6,8-dihydro-5H-1,8-naphthyridin-4-yl)oxy]phenyl]urea] | ↗ | ↗ | = | ↘ | < 1000 | +++ (cytotoxicity ≥ 85%) | < 1000 | ++ (50% ≤ cytotoxicity < 85%) | ++ (50% ≤ cytotoxicity < 85%) | +++ (cytotoxicity ≥ 85%) | 1000 to 5000 | 1000 to 5000 | 1 to 10 | +++ (cytotoxicity ≥ 85%) | < 100 | +++ (angiogenesis inhibition ≥ 80%) | colony growth [14]: inhibition of colony growth; differentiation into myotubes [15]: dose-dependent differentiation into myotubes; phosphorylation of members of the Src kinase family and their downstream proteins [16]: decreased phosphorylation; migration in the scratch assay [17]: inhibition of their migration
